Measured values: patent US11254686B1 (Corvus Pharmaceuticals, Inc., priority 2017, dated 2022)

What was measured:
[1] = target: adenosine A2A receptor (Homo sapiens (Human), UniProt P29274); assay: Adenosine receptor activity assay (Table 1), A2A activity; assay type: biochemical; details: read-out: Ave A2A cAMP IC50
[2] = target: adenosine A1 receptor (Homo sapiens (Human), UniProt P30542); assay: Adenosine receptor activity assay (Table 1), A1 cAMP; assay type: cell-based
[3] = target: adenosine A3 receptor (Homo sapiens (Human), UniProt P0DMS8); assay: Adenosine receptor activity assay (Table 1), A3 cAMP; assay type: cell-based
[4] = target: adenosine A2B receptor (Homo sapiens (Human), UniProt P29275); assay: Adenosine receptor activity assay (Table 1), A2B activity; assay type: biochemical; details: for Ratio: A2A activity to A2B activity (A2A/A2B); for IC50: read-out: Ave A2B cAMP IC50
adenosine A2B receptor, sequence (P29275 whole entry): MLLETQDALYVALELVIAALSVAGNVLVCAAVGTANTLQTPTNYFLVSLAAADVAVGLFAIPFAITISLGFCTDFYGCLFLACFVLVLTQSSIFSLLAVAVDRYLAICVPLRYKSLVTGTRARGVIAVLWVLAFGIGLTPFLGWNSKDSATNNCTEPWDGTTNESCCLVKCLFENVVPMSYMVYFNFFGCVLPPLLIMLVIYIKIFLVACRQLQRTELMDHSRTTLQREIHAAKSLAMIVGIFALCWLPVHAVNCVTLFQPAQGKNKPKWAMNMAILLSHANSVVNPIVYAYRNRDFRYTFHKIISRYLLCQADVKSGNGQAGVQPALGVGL

adenosine A2A receptor, sequence (P29274 whole entry): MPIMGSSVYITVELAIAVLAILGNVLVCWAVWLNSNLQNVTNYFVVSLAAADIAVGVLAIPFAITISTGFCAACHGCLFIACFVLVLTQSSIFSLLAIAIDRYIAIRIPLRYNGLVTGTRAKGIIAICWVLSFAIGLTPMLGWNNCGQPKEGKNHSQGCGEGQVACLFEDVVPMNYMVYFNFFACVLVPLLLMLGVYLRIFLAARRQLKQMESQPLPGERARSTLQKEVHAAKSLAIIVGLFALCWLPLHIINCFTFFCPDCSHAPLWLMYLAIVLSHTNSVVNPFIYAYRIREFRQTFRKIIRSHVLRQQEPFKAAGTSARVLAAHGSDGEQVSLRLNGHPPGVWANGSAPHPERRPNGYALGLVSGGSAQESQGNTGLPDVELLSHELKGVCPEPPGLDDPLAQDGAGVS
adenosine A1 receptor, sequence (P30542 whole entry): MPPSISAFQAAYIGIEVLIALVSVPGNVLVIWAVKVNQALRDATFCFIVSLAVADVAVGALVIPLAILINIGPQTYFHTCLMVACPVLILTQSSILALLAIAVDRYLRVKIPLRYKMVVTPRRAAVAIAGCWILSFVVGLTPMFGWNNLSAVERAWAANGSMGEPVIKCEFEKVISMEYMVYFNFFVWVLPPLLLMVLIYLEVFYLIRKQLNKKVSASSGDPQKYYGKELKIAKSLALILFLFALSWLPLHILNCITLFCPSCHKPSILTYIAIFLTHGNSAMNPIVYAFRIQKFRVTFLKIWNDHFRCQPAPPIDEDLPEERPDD
adenosine A3 receptor, sequence (P0DMS8 whole entry): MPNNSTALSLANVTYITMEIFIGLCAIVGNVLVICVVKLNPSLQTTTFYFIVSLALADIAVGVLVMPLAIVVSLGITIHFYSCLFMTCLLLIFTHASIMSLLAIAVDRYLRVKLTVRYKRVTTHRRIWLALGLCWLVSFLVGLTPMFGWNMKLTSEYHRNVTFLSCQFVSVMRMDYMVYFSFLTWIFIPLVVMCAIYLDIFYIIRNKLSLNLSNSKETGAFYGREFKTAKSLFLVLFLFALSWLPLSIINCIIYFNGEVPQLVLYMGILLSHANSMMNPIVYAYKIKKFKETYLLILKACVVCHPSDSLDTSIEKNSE

| Structure (SMILES) | IC50 [1] [nM] | IC50 [2] [nM] | IC50 [3] [nM] | Ratio [4] | IC50 [4] [nM] |
| --- | --- | --- | --- | --- | --- |
| C[C@H](Nc1nc(C(=O)N2CCCC2)c2sc(N)cc2n1)c1cncc(F)c1 [Example Z223, (S)-(6-Amino-2-((1-(5-fluoropyridin-3-yl)ethyl)amino)thieno[3,2-d]pyrimidin-4-yl)(pyrrolidin-1-yl)methanone] | 100 to 500 | > 500 | > 500 | 158.10 | < 10 |
| C[C@H](Nc1nc(C(=O)NCC(F)(F)F)c2sccc2n1)c1ccccn1 [Example Z226, (S)-2-((1-(Pyridin-2-yl)ethyl)amino)-N-(2,2,2-trifluoroethyl)thieno[3,2-d]pyrimidine-4-carboxamide] | 50 to 100 | > 500 | > 500 | 11.22 | < 10 |
| C[C@H](Nc1nc(C(=O)N2CCC2)c2sccc2n1)c1cncc(Cl)c1 [Example Z232, (S)-Azetidin-1-yl(2-((1-(5-chloropyridin-3-yl)ethyl)amino)thieno[3,2-d]pyrimidin-4-yl)methanone] | 100 to 500 | > 500 | > 500 | 60.88 | < 10 |
| COC1CN(C(=O)c2nc(N[C@@H](C)c3cncc(Cl)c3)nc3ccsc23)C1 [Example Z233, (S)-(2-((1-(5-Chloropyridin-3-yl)ethyl)amino)thieno[3,2-d]pyrimidin-4-yl)(3-methoxyazetidin-1-yl)methanone] | 100 to 500 | > 500 | > 500 | 51.97 | < 10 |
| C[C@H](Nc1nc(C(=O)N2CC[C@@H](F)C2)c2sccc2n1)c1cncc(F)c1 [Example Z234, (2-(((S)-1-(5-Fluoropyridin-3-yl)ethyl)amino)thieno[3,2-d]pyrimidin-4-yl)((R)-3-fluoropyrrolidin-1-yl)methanone] | 100 to 500 | > 500 | > 500 | 58.04 | < 10 |
| C[C@H](Nc1nc(C(=O)N2CC[C@H](O)C2)c2sccc2n1)c1cncc(Cl)c1 [Example Z236, (2-(((S)-1-(5-Chloropyridin-3-yl)ethyl)amino)thieno[3,2-d]pyrimidin-4-yl)((S)-3-hydroxypyrrolidin-1-yl)methanone] | > 500 | > 500 | > 500 | 57.61 | 10 to 50 |
| C[C@H](Nc1nc(C(=O)N2CC[C@@H](O)C2)c2sccc2n1)c1cncc(Cl)c1 [Example Z237, (2-(((S)-1-(5-Chloropyridin-3-yl)ethyl)amino)thieno[3,2-d]pyrimidin-4-yl)((R)-3-hydroxypyrrolidin-1-yl)methanone] | > 500 | > 500 | > 500 | 65.87 | 10 to 50 |
| C[C@H](Nc1nc(C(=O)NCC(C)(C)O)c2sccc2n1)c1cncc(F)c1 [Example Z238, (S)-2-((1-(5-Fluoropyridin-3-yl)ethyl)amino)-N-(2-hydroxy-2-methylpropyl)thieno[3,2-d]pyrimidine-4-carboxamide] | 100 to 500 | > 500 | > 500 | 22.98 | < 10 |
| CC(C)(C)OC(=O)N[C@@H]1CCN(C(=O)c2nc(NCc3cncc(F)c3)nc3ccsc23)C1 [Example Z239, tert-Butyl (R)-(1-(2-(((5-fluoropyridin-3-yl)methyl)amino)thieno[3,2-d]pyrimidine-4-carbonyl)pyrrolidin-3-yl)carbamate] | 100 to 500 | > 500 | 10 to 50 | 14.97 | < 10 |
| CNc1cc2nc(N[C@@H](C)c3cccnc3)nc(C(=O)N3CC(O)C3)c2s1 [Example Z240, (S)-(3-Hydroxyazetidin-1-yl)(6-(methylamino)-2-((1-(pyridin-3-yl)ethyl)amino)thieno[3,2-d]pyrimidin-4-yl)methanone] | > 500 | > 500 | > 500 | 23.69 | 10 to 50 |
| C[C@H](Nc1nc(C(=O)N2CCC2)c2sc(N)cc2n1)c1cncc(F)c1 [Example Z241, (S)-(6-Amino-2-((1-(5-fluoropyridin-3-yl)ethyl)amino)thieno[3,2-d]pyrimidin-4-yl)(azetidin-1-yl)methanone] | 50 to 100 | > 500 | > 500 | 78.77 | < 10 |

Results, then the compound that gave them:

| IC50 [1] [nM] | IC50 [2] [nM] | IC50 [3] [nM] | Ratio [4] | IC50 [4] [nM] | Structure (SMILES) |
| --- | --- | --- | --- | --- | --- |
| 100 to 500 | > 500 | > 500 | 45.21 | < 10 | C[C@H](Nc1nc(C(=O)N2CC[C@@H](O)C2)c2sc(N)cc2n1)c1cncc(F)c1 [Example Z242, (6-Amino-2-(((S)-1-(5-fluoropyridin-3-yl)ethyl)amino)thieno[3,2-d]pyrimidin-4-yl)((R)-3-hydroxypyrrolidin-1-yl)methanone] |
| 100 to 500 | > 500 | 50 to 100 | 112.45 | < 10 | CNc1cc2nc(N[C@@H](C)c3cncc(F)c3)nc(C(=O)N3CC(OC)C3)c2s1 [Example Z243, (S)-(2-((1-(5-Fluoropyridin-3-yl)ethyl)amino)-6-(methylamino)thieno[3,2-d]pyrimidin-4-yl)(3-methoxyazetidin-1-yl)methanone] |
| 10 to 50 | 50 to 100 | 50 to 100 | 18.24 | < 10 | Cc1cc2nc(N[C@@H](C)c3ccccn3)nc(C(=O)N3CCCC3)c2s1 [Example Z244, (S)-(6-Methyl-2-((1-(pyridin-2-yl)ethyl)amino)thieno[3,2-d]pyrimidin-4-yl)(pyrrolidin-1-yl)methanone] |
| 100 to 500 | > 500 | > 500 | 10.26 | 10 to 50 | CO[C@@H]1CCN(C(=O)c2nc(N[C@@H](C)c3cncc(Cl)c3)nc3ccsc23)C1 [Example Z253, (2-(((S)-1-(5-Chloropyridin-3-yl)ethyl)amino)thieno[3,2-d]pyrimidin-4-yl)((R)-3-methoxypyrrolidin-1-yl)methanone] |
| 100 to 500 | > 500 | > 500 | 9.38 | 10 to 50 | CO[C@H]1CCN(C(=O)c2nc(N[C@@H](C)c3cncc(Cl)c3)nc3ccsc23)C1 [Example Z254, (2-(((S)-1-(5-Chloropyridin-3-yl)ethyl)amino)thieno[3,2-d]pyrimidin-4-yl)((S)-3-methoxypyrrolidin-1-yl)methanone] |
| 10 to 50 | > 500 | > 500 | 1.81 | 10 to 50 | CO[C@H]1CCN(C(=O)c2nc(N[C@@H](C)c3ccccn3)nc3ccsc23)C1 [Example Z255, ((S)-3-Methoxypyrrolidin-1-yl)(2-(((S)-1-(pyridin-2-yl)ethyl)amino)thieno[3,2-d]pyrimidin-4-yl)methanone] |
| 100 to 500 | > 500 | > 500 | 31.95 | 10 to 50 | C[C@H](Nc1nc(C(=O)N2CC[C@H](CO)C2)c2sccc2n1)c1cccnc1 [Example Z259, ((S)-3-(Hydroxymethyl)pyrrolidin-1-yl)(2-(((S)-1-(pyridin-3-yl)ethyl)amino)thieno[3,2-d]pyrimidin-4-yl)methanone] |
